Drawing on publication PMC6192261 (Biochemical and biophysical research communications, 2018), this text covers Kd for 3 molecules.

NgDapB (4-hydroxy-tetrahydrodipicolinate reductase from Neisseria gonorrhoeae), sequence (Q5F5Y7 whole entry): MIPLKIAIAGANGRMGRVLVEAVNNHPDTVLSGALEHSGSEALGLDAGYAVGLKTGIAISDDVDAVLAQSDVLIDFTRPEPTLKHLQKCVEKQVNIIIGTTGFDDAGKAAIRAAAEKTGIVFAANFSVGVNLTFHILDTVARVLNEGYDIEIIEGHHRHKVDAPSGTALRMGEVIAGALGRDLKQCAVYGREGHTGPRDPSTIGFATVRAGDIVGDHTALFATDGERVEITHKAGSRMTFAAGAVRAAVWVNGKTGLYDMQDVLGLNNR

This assay concerns the target NgDapB (4-hydroxy-tetrahydrodipicolinate reductase from Neisseria gonorrhoeae) (Neisseria gonorrhoeae, UniProt Q5F5Y7). As to the kind of experiment: isothermal titration calorimetry. Type of assay: binding. (ITC needs no label: the signal is the heat of the interaction.)
By Kd is commonly meant the free concentration of one partner at which half of the binding sites on the other are occupied at equilibrium, for simple one-to-one binding. Low readings indicate higher affinity, high ones lower affinity. Molecule `NC(=O)C1=CN([C@@H]2O[C@H](COP(=O)(O)OP(=O)(O)OC[C@H]3O[C@@H](n4cnc5c(N)ncnc54)[C@H](OP(=O)(O)O)[C@@H]3O)[C@@H](O)[C@H]2O)C=CC1` [NADPH] gave a Kd of 4.8 ± 0.6 µM. Next, `O=C(O)c1cccc(C(=O)O)n1` [2,6-PDC, 2,6-pyridine dicarboxylic acid]: 21.2 ± 0.7 µM; `NC(=O)C1=CN([C@@H]2O[C@H](COP(=O)(O)OP(=O)(O)OC[C@H]3O[C@@H](n4cnc5c(N)ncnc54)[C@H](O)[C@@H]3O)[C@@H](O)[C@H]2O)C=CC1` [NADH]: 2.5 ± 0.5 µM.
